Where “and” joins values, the source holds several entries; their conditions need not be identical. Equal values may be shown once. Read-outs that look alike come from different tables or passages of the source.
Tests used:
[1] = the molecule shown is the open-chain precursor; crosslinker bond; 11-membered ring; 2,3-bis(chloromethyl)pyrazine/Cs2CO3/NaI; MeCN; 9.09 mM; 70.0 °C
[2] = 11-membered ring
[3] = the molecule shown is the open-chain precursor; crosslinker bond; 11-membered ring; 2,3-bis(chloromethyl)pyridine HCl/Cs2CO3/NaI; MeCN; 73.1 mM; 75.0 °C
MCL-1 = MCL-1 (Homo sapiens, UniProt Q07820, K194A/K197A/R201A); experiment: Protein-protein interaction assay MCL-1/Noxa BH3 peptide, TR-FRET (MCL-1 assay, Assay 1); type: binding; details: MCL-1 Assay [M] (median), MBP-MCL-1 / Noxa BH3 peptide
MCL-1, sequence (Q07820 173-321 K194A/K197A/R201A, looked up): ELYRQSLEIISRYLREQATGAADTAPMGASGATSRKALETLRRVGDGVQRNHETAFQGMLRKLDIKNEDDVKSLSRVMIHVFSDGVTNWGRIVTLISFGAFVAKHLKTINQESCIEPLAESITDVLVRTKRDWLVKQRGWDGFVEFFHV
Procedure, shortened: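 TR-FRET competition between compounds and a biotin-PEG Noxa BH3 tracer for 1 nM MBP-MCL-1 (residues 173-321). Incubation was 1 h at 22 °C in the dark, then overnight at 4 °C, in 50 mM Tris pH 7 buffer with KF and DTT, after a 10-min compound pre-equilibration. Normalized ratios were fitted with a 4-parameter Hill equation to give IC50.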

BCL-XL = BCL-XL (Homo sapiens, UniProt Q07817); experiment: Protein-protein interaction assay BCL-XL/Bad BH3 peptide, TR-FRET (BCL-XL assay, Assay 2); type: binding; details: His-BCL-XL / Bad BH3 peptide, median
BCL-XL, sequence (Q07817 1-212): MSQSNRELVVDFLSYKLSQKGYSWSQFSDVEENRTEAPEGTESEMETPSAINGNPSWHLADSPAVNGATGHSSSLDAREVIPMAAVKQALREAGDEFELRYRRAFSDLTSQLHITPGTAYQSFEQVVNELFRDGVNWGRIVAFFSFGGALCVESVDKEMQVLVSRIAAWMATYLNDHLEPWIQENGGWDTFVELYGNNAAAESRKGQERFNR

SUDHL5 [4] = experiment: Anti-proliferative effect in SUDHL5 cells, CellTiter-Glo (Assay 7); type: cell-based; details: SUDHL5, 72 hours incubation, CellTiter-Glo, median, read-out: Antiproli SUDHL5 [M] (median)
Procedure, shortened: (§1)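 Cells were plated and incubated overnight at 37 °C alongside a day 0 reference plate, then exposed to compound for 72 h. Viability was read by CellTiter-Glo luminescence, and IC50s were calculated using day 0 values and DMSO controls as references.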

A2780 = experiment: Anti-proliferative effect in A2780 cells, CellTiter-Glo (Assay 7); type: cell-based; details: Homo sapiens, A2780, 72 h, A2780, 72 hours incubation, CellTiter-Glo; several values per example; read-out: Antiproli A2780
Procedure, shortened: as §1

MV-4-11 = experiment: Anti-proliferative effect in MV-4-11 cells, CellTiter-Glo (Assay 7); type: cell-based; details: MV-4-11, 72 hours incubation, CellTiter-Glo, several values per example, read-out: Antiproli MV-4-11
Procedure, shortened: as §1

BCL-2 = BCL-2 (Homo sapiens, UniProt P10415); experiment: Protein-protein interaction assay BCL-2/Bad BH3 peptide, TR-FRET (BCL-2 assay, Assay 3); type: binding; details: His-BCL-2 / Bad BH3 peptide, median
BCL-2, sequence (P10415 1-211): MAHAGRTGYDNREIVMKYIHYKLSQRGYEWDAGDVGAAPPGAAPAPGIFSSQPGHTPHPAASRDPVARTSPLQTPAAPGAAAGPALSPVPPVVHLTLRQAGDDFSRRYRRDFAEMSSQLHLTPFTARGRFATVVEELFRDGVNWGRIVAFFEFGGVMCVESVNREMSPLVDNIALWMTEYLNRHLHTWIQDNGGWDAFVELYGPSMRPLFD
Method: The dose-dependent inhibition by the compounds described in this invention of the interaction between BCL-2 and the BH3 domain of Bad (both human) was determined using a steady state binding competition assay with time-resolved fluorescence energy transfer (TR-FRET) readout. For that purpose BCL-2 (amino acids 1-211, C-terminal fused to a hexahistidine (6×His) tag (SEQ ID 5) and a synthetic Bad BH3-derived peptide of sequence Biotin-PEG2-PEG2-[sequence]-Nle-[sequence]-amide (SEQ ID 4) served as protein receptor and tracer ligand respectively. The recombinant BCL-2 protein (expressed in E. coli) was purchased from BPS Bioscience (San Diego, Calif., USA). The Bad BH3-derived peptide can be obtained from e.g. Biosyntan (Berlin, Germany).
For that, 100-fold concentrated DMSO solutions were prepared by serial dilutions (1:3.4) of a 2 mM stock solution in a clear, 384-well microtiter plate (Greiner Bio-One, Frickenhausen, Germany). From there, 50 nl were transferred in a dark test plate (Greiner Bio-One, Frickenhausen, Germany). The assay was initiated by addition of 2 μl of a 2,5-fold concentrated His-BCL-2 solution (usually for a 1 nM end concentration in 5 μl reaction volume) in aqueous assay buffer [50 mM Tris/HCl pH 7, 100 mM sodium chloride (NaCl), 50 mM potassium fluoride (KF), 0.005% Tween-20, 2 mM DTT, 0.1% bovine gamma globulin (BGG)] to the compounds in the assay plate. This was followed by a 10-minute incubation step at 22° C. for pre-equilibration of the putative complex between His-BCL-2 and the compounds.
The mixture was incubated in the dark for one hour at 22° C. and then overnight at 4° C. The formation of BCL-2/Bad complexes was determined by measuring the resonance energy transfer of the anti-His-Eu-cryptate antibody to the streptavidin-XL665 present in the reaction. For that purpose, the fluorescence emission at 620 nm and 665 nm after excitation at 330-350 nm was measured in a TR-FRET measuring instrument, for instance a Rubystar or a Pherastar (both from BMG Lab Technologies, Offenburg, Germany) or a Viewlux (Perkin-Elmer). The ratio of the emission at 665 nm and at 622 nm was used as indicator of the amount of BCL-2/Bad complexes present.
The resulting data (ratio) were normalized, taking 0% inhibition as the mean value of control measurements (usually 32 data points) where all reagents were included. In this case 50 nl DMSO were used instead of compounds. […] IC50 values were determined by regression analysis based on a 4 parameter equation (minimum, maximum, IC50, Hill; Y=Max+(Min−Max)/(1+(X/IC50)^Hill) using the Screener Software (Genedata).

SUDHL10 [5] = experiment: Induction of caspase-3/7 activity in SUDHL10 cells (Assay 4); type: cell-based; details: SUDHL10, 3 hours treatment, Caspase-Glo 3/7, median, read-out: Caspase SUDHL10 [M] (median)
Procedure, shortened: (§2)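 Luminescent Caspase-Glo 3/7 read-out in SUDHL5 and SUDHL10 cells after 3 h compound exposure at 37 °C, followed by 1 h reagent incubation.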

SUDHL5 [6] = experiment: Induction of cytotoxicity in SUDHL5 cells, CellTiter-Glo (Assay 6); type: cell-based; details: SUDHL5, 5 hours incubation, median, read-out: Cytotox SUDHL5 [M] (median)
Procedure, shortened: (§3)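 Luminescent ATP read-out (CellTiter-Glo) after 5 h compound exposure at 37° C. Cells seeded the day before; medium-only wells as background; rim wells excluded.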

SUDHL10 [7] = experiment: Induction of cytotoxicity in SUDHL10 cells, CellTiter-Glo (Assay 6); type: cell-based; details: SUDHL10, 5 hours incubation, median, read-out: Cytotox SUDHL10 [M] (median)
Procedure, shortened: as §3

HMC-1-8 = experiment: Anti-proliferative effect in HMC-1-8 cells, CellTiter-Glo (Assay 7); type: cell-based; details: HMC-1-8, 72 hours incubation, read-out: Antiproli HMC-1-8
Method: Assessment of the Anti-Proliferative Effect of Compounds in Different Cell Lines
The impact of compounds on the proliferation of different cell lines was assessed using the CellTiter-Glo® Luminescent Cell Viability reagent from Promega (G7573).
In parallel, cells were plated in a reference (day 0) plate for time zero determination. Cells were incubated in a humidified incubator at 37° C. overnight.
Rim wells were excluded. The cells were incubated for 72 hours in a humidified incubator at 37° C. The day 0 plate was measured by adding 30 μL/well of CTG solution (CellTiter-Glo® Luminescent Cell Viability reagent, Promega G7573) to time zero wells in the reference plate followed by a 10 minutes incubation and luminescence reading at 0.1 ms. using the PHERAstar FS microplate reader (BMG Labtech).
After 72 hours incubation, the treated plates were measured in the same way as the day 0 plate mentioned above. The Bella DRC Master Sheet was used to calculate IC50s, with CI=day 0 values and C0=DMSO control values.

AMO-1 = experiment: Anti-proliferative effect in AMO-1 cells, CellTiter-Glo (Assay 7); type: cell-based; details: AMO-1, 72 hours incubation, CellTiter-Glo, several values per example, read-out: Antiproli AMO-1
Procedure, shortened: as §1

SUDHL5 [8] = experiment: Induction of caspase-3/7 activity in SUDHL5 cells (Assay 4); type: cell-based; details: SUDHL5, 3 hours treatment, Caspase-Glo 3/7, median, read-out: Caspase SUDHL5 [M] (median)
Procedure, shortened: as §2

In the case of `CCOC(=O)c1[nH]c2c(-c3c(CO)nn(C)c3C)c(Cl)ccc2c1CCCOc1cccc2cc(F)ccc12`, the ring closure, crude yield [1] is reported as 90% and the ring closure, isolated yield ([2]; the molecule shown is the open-chain precursor, crosslinker bond, 1,2-bis(bromomethyl)benzene/Cs2CO3, MeCN/THF 2:1, 24.3 mM, 80.0 °C) is reported as 74%.
For `CCOC(=O)c1[nH]c2c(-c3c(CO)nn(C)c3C)cccc2c1CCCOc1cccc2ccccc12`, the ring closure, yield after HPLC [3] was 20% and 30%.
`CCOC(=O)c1c(CCCOc2cccc3cc(F)ccc23)c2ccc(Cl)c3c2n1Cc1ccccc1COCc1c-3c(CC)nn1CCN1CCOCC1` gave a ring closure, isolated yield ([2]; from CCOC(=O)c1c(CCCOc2cccc3cc(F)ccc23)c2ccc(Cl)c(-c3c(CC)nn(CCN4CCOCC4)c3CO)c2n1Cc1ccccc1CBr, ether bond, NaH/di-tert-butyl imidodicarbonate, DMF, 56.1 mM, […]) of 10% and a ring closure, yield of all isomers (from CCOC(=O)c1c(CCCOc2cccc3cc(F)ccc23)c2ccc(Cl)c(-c3c(CC)nn(CCN4CCOCC4)c3CO)c2n1Cc1ccccc1CBr, ether bond, NaH / di-tert-butyl imidodicarbonate, DMF, 56.1 mM, 50.0 °C, […]) of 10%.
`CCOC(=O)c1c(CCCOc2cccc3ccccc23)c2ccc(Cl)c3c2n1Cc1ccccc1COCc1nn(C)c(C)c1-3` gave a ring closure, isolated yield ([2]; from CCOC(=O)c1c(CCCOc2cccc3ccccc23)c2ccc(Cl)c(-c3c(CO)nn(C)c3C)c2n1Cc1ccccc1CBr, ether bond, NaH/di-tert-butyl imidodicarbonate, THF, 29.9 mM, […]) of 76% and a ring closure, yield of all isomers (from CCOC(=O)c1c(CCCOc2cccc3ccccc23)c2ccc(Cl)c(-c3c(CO)nn(C)c3C)c2n1Cc1ccccc1CBr, ether bond, sodium hydride / di-tert-butyl imidodicarbonate, THF, 29.9 mM, […], 72.0 h) of 76%.
Compound `CCOC(=O)c1c(CCCOc2cccc3ccccc23)c2cccc3c2n1Cc1ccccc1CNCc1nn(C)c(C)c1-3` has a ring closure, yield of all isomers (from CCOC(=O)c1c(CCCOc2cccc3ccccc23)c2cccc(-c3c(CBr)nn(C)c3C)c2n1Cc1ccccc1CN, amine bond, cesium carbonate, acetonitrile, 30.6 mM, 50.0 °C, 15.0 h) of 47.3%.
With `Cc1c2c(nn1C)COCc1nccnc1Cn1c(C(=O)O)c(CCCOc3cccc4cc(F)ccc34)c3ccc(Cl)c-2c31` (racemic) [Example 93, (rac)-3-Chloro-17-{3-[(6-fluoronaphthalen-1-yl)oxy]propyl}-4,5-dimethyl-5,7,9,14-tetrahydropyrazino[2′,3′:3,4]pyrazolo[4′,3′:9,10][1,6]oxazacycloundecino[8,7,6-hi]indole-16-carboxylic Acid] the IC50 (MCL-1) was 1.5e-09 M, the IC50 (BCL-XL) was > 20 µM and the IC50 (SUDHL5 [4]; Homo sapiens, SU-DHL-5, 72 h) was 2.5e-06 M. For the same compound, the IC50 (A2780) was > 33 µM, the IC50 (MV-4-11; Homo sapiens, MV4-11, 72 h) was 15.1 µM and the IC50 (BCL-2) was > 20 µM. The EC50 (SUDHL10 [5]; Homo sapiens, SU-DHL10, 3 h) was 1e-05 M, the IC50 (SUDHL5 [6]; Homo sapiens, SU-DHL-5, 5 h) was 2.8e-06 M and the IC50 (SUDHL10 [7]; Homo sapiens, SU-DHL10, 5 h) was 6.7e-06 M. The IC50 (HMC-1-8; 72 h) was 32 µM, the IC50 (AMO-1; Homo sapiens, AMO1, 72 h) was 7.19 µM and the EC50 (SUDHL5 [8]; Homo sapiens, SU-DHL-5, 3 h) was 2.5e-06 M.
With `Cc1c2c(nn1C)COCc1nccnc1Cn1c(C(=O)O)c(CCCOc3cccc4ccccc34)c3ccc(Cl)c-2c31` (single isomer, unassigned; enantiomer 1) [Example 46, 3-Chloro-4,5-dimethyl-17-{3-[(naphthalen-1-yl)oxy]propyl}-5,7,9,14-tetrahydropyrazino-[2′,3′:3,4]pyrazolo[4′,3′:9,10][1,6]oxazacycloundecino[8,7,6-hi]indole-16-carboxylic Acid (Enantiomer 1)] the IC50 (BCL-XL) was > 20 µM, the IC50 (MV-4-11) was 5.27 µM and the IC50 (BCL-2) was > 20 µM. For the same compound, the EC50 (SUDHL10 [5]) was 7.3e-06 M, the IC50 (SUDHL10 [7]) was 7e-06 M and the IC50 (HMC-1-8; 72 h) was 11.9 µM. The IC50 (AMO-1; Homo sapiens, AMO1, 72 h) was 6.15 µM and the EC50 (SUDHL5 [8]) was 1.8e-06 M.
Work on `Cc1c2c(nn1C)COCc1nccnc1Cn1c(C(=O)O)c(CCCOc3cccc4ccccc34)c3ccc(Cl)c-2c31` (single isomer, unassigned; enantiomer 2) [Example 47, 3-Chloro-4,5-dimethyl-17-{3-[(naphthalen-1-yl)oxy]propyl}-5,7,9,14-tetrahydropyrazino-[2′,3′:3,4]pyrazolo[4′,3′:9,10][1,6]oxazacycloundecino[8,7,6-hi]indole-16-carboxylic Acid (Enantiomer 2)] yielded an IC50 (SUDHL5 [4]) of 4.6e-06 M, an IC50 (MV-4-11) of 11.7 µM and an EC50 (SUDHL10 [5]) of 1.6e-05 M. It also gave an IC50 (SUDHL5 [6]) of 4.8e-06 M, an IC50 (SUDHL10 [7]) of 1.9e-05 M and an IC50 (HMC-1-8) of 16.1 µM. It also gave an IC50 (AMO-1) of 11.5 µM and an EC50 (SUDHL5 [8]) of 4.7e-06 M.
